Experimental data from patent US5811241A, “Method for preparing and identifying N-substitued 1,4-piperazines and N-substituted 1,4-piperazinediones” (Cortech, Inc., priority 1995, dated 1998).

Target: T1, human BK2 receptor (Homo sapiens, UniProt P30411)
T1 construct: expressed in transfected cells; host or cells: CHO-K1 (ATCC)
T1 sequence (P30411 1-391): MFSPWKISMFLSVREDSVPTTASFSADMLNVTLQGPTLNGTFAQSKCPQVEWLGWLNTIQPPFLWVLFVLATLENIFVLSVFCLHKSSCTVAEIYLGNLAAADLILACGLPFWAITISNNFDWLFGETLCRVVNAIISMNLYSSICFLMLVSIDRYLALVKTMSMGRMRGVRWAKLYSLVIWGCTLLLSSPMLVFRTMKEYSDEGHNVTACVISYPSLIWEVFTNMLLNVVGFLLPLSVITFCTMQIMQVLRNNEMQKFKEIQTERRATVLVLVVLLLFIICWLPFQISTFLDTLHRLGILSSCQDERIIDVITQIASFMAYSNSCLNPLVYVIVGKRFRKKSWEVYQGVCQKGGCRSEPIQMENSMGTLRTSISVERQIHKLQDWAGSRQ
Experiment: Bradykinin 2 human receptor clone binding assay (inhibition of radio-labeled bradykinin binding)
Settings: compound resynthesized in pure form, read-out: IC50, BK binding inhibition
Experimental: Bradykinin 2 and Bradykinin 1 Human Receptor Clone Binding Assays
Human bradykinin B2 receptor was expressed in CHO-K1 (ATCC) cells. Preparation of membranes for binding assay was carried out by scraping cells from roller bottles in ice cold PBS and centrifuging at 1000× g, at 4° C. for 15 minutes. The supernatant was discarded and pellet resuspended in Buffer A consisting of 25 mM TES (pH 6.8) with 2 uM 1,10-phenanthroline, and centrifuged at 27,000× g for 15 min. The pellet was washed once using the same buffer and centrifugation parameters. The final pellet was resuspended in Buffer B (Buffer A with 2 uM captopril, 140 ug/ml bacitracin, 0.1% BSA), and stored in 1 ml aliquot, frozen at -70° C. until needed.
B2 Binding assays were performed by incubating human clone membrane solution with ^3 H-bradykinin (final concentration 0.3 nM) with or without test compounds in assay buffer (Buffer B with 1 mM dithiothreitol), at room temperature, for 45 minutes, at a final volume of 315 ul. All test compound dilutions were done in triplicate. Assays were harvested by quick filtration in a Tomtec Harvester 96, with ice-cold wash buffer consisting of 10 mM Tris/HCl, pH 7.5, 100 mM NaCl,0.02% BSA, onto Wallec printed glassfiber Filtermat "B", which had been pre-soaked with 0.1% PEI and previously air-dried. Filtermats were counted in 9.5 ml Wallec Beta-Plate Scint, in Wallec 1450 MicroBeta Counter.

Compound	IC50
N=C(N)NCCCCCCCN1CC(=O)N(Cc2ccc(-c3ccccc3)cc2)C(C2Cc3ccccc3C2)C1=O (racemic) [Example 61]	13 µM
N=C(N)NCCCCCCN1CC(=O)N(Cc2ccc3ccccc3c2)C(C2Cc3ccccc3C2)C1=O (racemic) [Example 60]	4.1 µM
